Data reported in publication PMC12156344, “Furin-Triggered Peptide Self-Assembly Activates Coumarin Excimer Fluorescence for Precision Live-Cell Imaging” (Molecules, 2025).
Peptide text beside a SMILES is read from it. * marks the point of attachment. DEAC = CCN(CC)c1ccc2cc(C(=O)*)c(=O)oc2c1

Experiments:
[1] = Transmission electron microscopy (TEM) of self-assembly; format: physicochemical; details: aqueous solution, particle size distribution histogram (Figure 3b, S10)
Description: (§1) Next, we examined the factors driving excimer formation. […] […].

[2] = Dynamic light scattering (DLS); format: physicochemical; details: solution; DLS (Figure S11)
Description: as §1

[3] = Concentration-dependent fluorescence (excimer formation) in furin working buffer; format: physicochemical; details: under UV irradiation (365 nm lamp)
Method: In the next phase, we investigated the optical properties of RF-Cou and its enzymatic product F-Cou. […] In contrast, as the concentration increased, a new emission peak around 550 nm gradually emerged in the fluorescence spectra of F-Cou. […] These observations confirmed the formation of Cou excimers.
Figure 2 The fluorescence emission spectra and images of RF-Cou (a,c) and F-Cou (b,d) at different concentrations in furin working buffer. […] The fluorescence spectra were conducted with the excitation of 430 nm and the slit width of 5 nm. The fluorescence images were taken under the 365 nm UV lamp irradiation.

[4] = not given; remark: listed apart in the source
[5] = not given; remark: listed apart in the source
[6] = not given; remark: listed apart in the source
[7] = Critical micelle concentration (CMC) measurement by transmittance; details: furin working buffer
Method: The transmittance spectra of the solutions were measured using a UV-3600 spectrophotometer (SHIMADZU, Kyoto, Japan).

[8] = not given; remark: listed apart in the source
furin = furin (Homo sapiens, UniProt P09958); format: biochemical; details: 200 μM with 50 U/mL furin, 37 °C, 12 h
Method: Based on the above in vitro experiments, we concluded that RF-Cou existed as a blue fluorescent monomer in aqueous solution. […] These findings validated the feasibility of using RF-Cou for subsequent precision live-cell imaging studies of furin activity.
Figure 3 (a) Fluorescence decay profiles of the first emission peak at 475 nm (blue) and the last emission peak at 550 nm (green) of 200 μM F-Cou; λex = 405 nm. (b) TEM image of F-Cou. Inset: the particle size distribution histogram. (c) LC-MS traces of 200 μM RF-Cou incubated with or without 50 U/mL furin at 37 °C for 12 h. The blue line corresponds to the probe RF-Cou, and the green line represents its cleavage product F-Cou. TEXT PRINTED IN THE PICTURE: (a) no label printed: First peak at 475 nm <τ> = 4.26 ns; Last peak at 550 nm <τ> = 10.73 ns | (b) no label printed: d = 51.1 ± 9.8 nm

[9] = test system: normal mouse fibroblast L929 cells; format: cell-based; details: 200 µM
Method: 4T1 mouse breast cancer cells or L929 mouse fibroblast cells were cultured in RPMI-1640 medium or Dulbecco’s Modified Eagle’s medium (DMEM) supplemented with 10% v/v FBS, 100 U/mL penicillin, 100 μg/mL streptomycin, and 0.25 μg/mL amphotericin B, respectively. These cells were incubated at 37 °C in a humidified atmosphere of 5% CO2. First, the cells (4T1, L929 cell lines) were seeded in 96-well plates (3 × 10^3 cells in each well) and incubated in a 37 °C cell incubator for 24 h. The RPMI-1640 medium or DMEM was replaced with different concentrations of RF-Cou (0, 1.5, 3.1, 6.2, 12.5, 25.0, 50.0, 100, and 200 μM) in the medium and incubated for 24 h or 48 h, respectively. MTT (5 mg/mL, 10 μL) was then added to each well, and the cells were incubated for another 4 h. The formed formazan crystals were dissolved by DMSO (100 μL per well), and the absorbance at 570 nm was measured using a microplate reader (BioTek, Winooski, VT, USA).

[10] = test system: furin-overexpressing 4T1 tumor cells; assay: Confocal live-cell fluorescence imaging of furin activity, 4T1 cells; format: cell-based, mouse; details: 200 μM
Method: (§2) 4T1 cells or L929 cells were seeded on confocal dishes (1 × 10^5 cells/dish) and incubated at 37 °C in a humidified atmosphere of 5% CO2 for 24 h. Following the removal of the conditioned medium, 4T1 cells or L929 cells were treated with RF-Cou (200 μM) at various times (0, 0.5, 1, 2, 4, 6, and 8 h). After the incubation was completed, the medium was discarded, PBS was added to clean the cells three times, and laser confocal scanning microscopy was used for cell imaging. To investigate the role of furin in activating excimer fluorescence, 4T1 cells were pre-incubated with 1 mM of furin inhibitor II (Inh) for 30 min and then treated with RF-Cou (200 μM) for 0.5 h or 6 h before imaging.
(§3) Figure 5 (a) Confocal fluorescence images of furin-overexpressing 4T1 cells or normal L929 cells incubated with 200 μM RF-Cou at varying time points; λex = 405 nm, monomer channel (blue) λem = 415–485 nm; excimer channel (green) λem = 520–600 nm; Scale bar: 50 μm. Time-dependent relative fluorescence intensity in monomer and excimer channels of 4T1 (b) or L929 (c) cells, respectively (n = 3, mean ± SD).
Figure 6 (a) Confocal fluorescence images of 4T1 or L929 cells incubated with 200 μM RF-Cou for 0.5 h or 6 h after being treated with or without furin inhibitor (Inh); λex = 405 nm, monomer channel (blue) λem = 415–485 nm; excimer channel (green) λem = 520–600 nm; Scale bar: 50 μm. Fluorescence intensity in monomer and excimer channels of 4T1 (b) or L929 (c) cells, respectively (n = 3, mean ± SD). Flow cytometry results of the excimer channel fluorescence in 4T1 (d) or L929 (e) incubated with 200 μM RF-Cou for 6 h after being treated with or without Inh.

L929 normal cells = assay: Confocal live-cell fluorescence imaging, L929 cells; format: cell-based, mouse; details: 200 μM
Method: as §2, §3
Figure 6 (a) Confocal fluorescence images of 4T1 or L929 cells incubated with 200 μM RF-Cou for 0.5 h or 6 h after being treated with or without furin inhibitor (Inh); λex = 405 nm, monomer channel (blue) λem = 415–485 nm; excimer channel (green) λem = 520–600 nm; Scale bar: 50 μm. […]

Chain of furin (P09958 108-794, species assumed): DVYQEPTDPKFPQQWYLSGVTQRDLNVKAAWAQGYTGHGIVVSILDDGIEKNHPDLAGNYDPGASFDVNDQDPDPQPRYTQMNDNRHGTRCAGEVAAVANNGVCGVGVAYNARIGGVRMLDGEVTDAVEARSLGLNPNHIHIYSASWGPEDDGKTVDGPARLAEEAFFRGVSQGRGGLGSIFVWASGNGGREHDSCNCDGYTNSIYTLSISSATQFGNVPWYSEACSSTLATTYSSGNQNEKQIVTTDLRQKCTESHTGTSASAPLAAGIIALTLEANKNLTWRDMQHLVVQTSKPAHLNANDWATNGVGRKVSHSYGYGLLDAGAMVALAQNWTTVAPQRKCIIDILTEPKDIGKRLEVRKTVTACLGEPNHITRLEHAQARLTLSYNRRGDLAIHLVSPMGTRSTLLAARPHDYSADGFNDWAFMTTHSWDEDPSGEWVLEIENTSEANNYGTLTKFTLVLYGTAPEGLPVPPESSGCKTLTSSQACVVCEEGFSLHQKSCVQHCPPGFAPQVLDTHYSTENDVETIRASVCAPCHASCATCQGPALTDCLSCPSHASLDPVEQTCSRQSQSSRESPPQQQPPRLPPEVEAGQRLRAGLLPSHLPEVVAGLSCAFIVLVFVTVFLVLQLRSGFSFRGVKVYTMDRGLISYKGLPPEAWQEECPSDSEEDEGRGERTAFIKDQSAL

| SMILES | Nanoparticle diameter by TEM [1] | Hydrodynamic diameter by DLS [2] | Concentration above which the solution changes from blue to green (excimer formation) [3] | maximum absorption peak | logP (physchem) | fluorescence lifetime <τ>, 475 nm emission peak [4] | fluorescence lifetime <τ>, 550 nm emission peak [5] | fold enhancement of fluorescence lifetime, 550 nm vs 475 nm band [6] | Critical micelle concentration (CMC) ([7]; transmittance-concentration curve at 600 nm (Figure S9)) | maximum emission peak [8] | Cleavage by furin, LC-MS (furin) | Cell viability [9] | Excimer fluorescence after furin inhibitor pretreatment ([10]; 4T1 cells pretreated with 1 mM furin inhibitor II (Inh) for 30 min, 6 h) | Cellular uptake ([10]; 4T1 cells with or without Inh pretreatment, 0.5 h, confocal fluorescence) | Excimer channel fluorescence intensity vs monomer channel ([10]; 4T1 cells, peak at 6 h, λex 405 nm, excimer 520–600 nm, monomer 415–485 nm, n = 3) | Cellular uptake (L929 normal cells; 0.5 h, confocal fluorescence) | Monomer channel fluorescence intensity vs excimer channel (L929 normal cells; 6 h, λex 405 nm, excimer 520–600 nm, monomer 415–485 nm, n = 3) | Transmittance (self-assembly performance) ([7]; concentrations up to 800 μM, transmittance at 600 nm, UV-3600 spectrophotometer) |
| --- | --- | --- | --- | --- | --- | --- | --- | --- | --- | --- | --- | --- | --- | --- | --- | --- | --- | --- |
| CCN(CC)c1ccc2cc(C(=O)NCCCC[C@H](N)C(=O)N[C@@H](Cc3ccccc3)C(=O)N[C@@H](Cc3ccccc3)C(=O)O)c(=O)oc2c1 [F-Cou, Lys(Cou)-Phe-Phe-OH] | 51.1 ± 9.8 nm | 69.2 ± 18.4 nm | exceeded 31.25 μM | 430 nm | 1.15 | 4.26 ns | 10.7 ns | 2.5 fold | 45.1 µM | – | – | – | – | – | – | – | – | – |
| CCN(CC)c1ccc2cc(C(=O)NCCCC[C@H](NC(=O)[C@H](CCCNC(=N)N)NC(=O)[C@H](CCCNC(=N)N)NC(=O)[C@@H](NC(=O)[C@H](CCCNC(=N)N)NC(C)=O)C(C)C)C(=O)N[C@@H](Cc3ccccc3)C(=O)N[C@@H](Cc3ccccc3)C(=O)O)c(=O)oc2c1 [RF-Cou, Ac-Arg-Val-Arg-Arg-Lys(Cou)-Phe-Phe-OH] (Ac-RVRRK(DEAC)FF-OH) | no nanoparticle distribution was observed | no detectable signal corresponding to nanoparticles | – | 430 nm | -1.46 | – | – | – | – | 475 nm | could be enzymatically processed by furin to generate F-Cou | over 80% | significantly weaker than that in cells without Inh pretreatment | successful cellular uptake | 3.2 fold | successful cellular uptake | approximately 5.1 fold | > 95% |
